Reference: patent US20200237711A1, “Compositions for Treating and/or Preventing Cancer” (Boston Biomedical, Inc., priority 2017, published 2020)

Tests used:
[1] = test system: metabolism of 2-acetylnaphtho[2,3-b]furan-4,9-dione in human liver cytosol; experiment: Screening for an inhibitor of a metabolic enzyme (human liver cytosol, LC-MS/MS); type: biochemical; settings: test drug 10 μmol/L, substrate 0.5 μmol/L, 37° C., 5 minutes (FIG. 9)
Experimental: To a reaction solution obtained by dissolving a human liver cytosol (0.1 mg/mL) and NADPH (1 mmol/L) in a phosphate buffer solution, a test drug (10 μmol/L) was added. Then, 2-acetylnaphtho[2,3-b]furan-4,9-dione was added to be 0.5 μmol/L and thereby the reaction was started. After incubation at 37° C. for 5 minutes, 50 nmol/L phenytoin solution, which had been dissolved in 0.1% formic acid-containing acetonitrile, was added and the reaction was terminated. After centrifugation, the resulting supernatant was measured using LC-MS/MS to quantify the residual amount of 2-acetylnaphtho[2,3-b]furan-4,9-dione, and the inhibition intensity of the test drugs was evaluated by comparison with the control group.

[2] = test system: metabolism of 2-acetylnaphtho[2,3-b]furan-4,9-dione in human liver cytosol (AKR and CR); experiment: Identification of a metabolic enzyme of 2-acetylnaphtho[2,3-b]furan-4,9-dione (CR/AKR inhibitors in human liver cytosol); type: biochemical; settings: AKR inhibitor 1.0 μmol/L or 10 μmol/L, 5 minutes (FIG. 8)
Experimental: To a reaction solution obtained by dissolving a human liver cytosol (0.1 mg/mL) and NADPH (1 mmol/L) in a phosphate buffer solution, quercitrin (10 μmol/L or 100 μmol/L), which is a CR inhibitor, and phenolphthalein or medroxyprogesterone 17-acetate (1.0 μmol/L or 10 μmol/L), which is an AKR inhibitor, were added. Further, [^14C]-labeled 2-acetylnaphtho[2,3-b]furan-4,9-dione was added to the reaction solution such that the dione concentration is 0.5 μmol/L. After incubation at 37° C. for 5 minutes, Radio-HPLC was used to measure radioactivity.

[3] = Concentration in plasma and tumor by combination with mefenamic acid in tumor-bearing mice; type: in vivo, mouse; settings: oral single dose
Experimental: The following administration solution (1), (2) or (3) was orally administered to 7 week aged mice (BALB/cAnNCrlCrlj, female, Charles River Laboratories Japan, Inc.) in a single time.
(1) 100 mg/kg of 2-acetylnaphtho[2,3-b]furan-4,9-dione
(2) 100 mg/kg of 2-acetylnaphtho[2,3-b]furan-4,9-dione and 100 mg/kg of mefenamic acid
(3) 100 mg/kg of 2-acetylnaphtho[2,3-b]furan-4,9-dione and 300 mg/kg of mefenamic acid
The blood was collected 2, 6, and 16 hours after the administration, and the blood was centrifuged to give plasma. Methanol was added to the plasma such that the final concentration of methanol is 80%, and then it was centrifuged. Further, protein-removing treatment was carried out by filtering through a filter, and then 2-acetylnaphtho[2,3-b]furan-4,9-dione was detected and quantified using LC-MS/MS (API4000, AB SCIEX). Meanwhile, a tumor mass was collected at the same time as the blood collection, 2-acetylnaphtho[2,3-b]furan-4,9-dione in the tumor was detected and quantified.

A549 cells [4] = experiment: Intracellular concentration of 2-acetylnaphtho[2,3-b]furan-4,9-dione with a metabolic inhibitor, A549; type: cell-based, human; settings: 1.0 μmol/L dione with 30 or 100 μmol/L inhibitor, 2 hours (FIG. 11)
Experimental: (§1) A549 cells or H460 cells were seeded onto a 96-well culture plate (made by Corning Inc.) at 2×10^4/well, and then cultured at 37° C. under 5% carbon dioxide atmosphere in an incubator for 48 hours. After which, they were cultured for 2 hours with 2-acetylnaphtho[2,3-b]furan-4,9-dione in a final concentration of 1.0 μmol/L and in the presence or absence of 30 μmol/L or 100 μmol/L of mefenamic acid or flufenamic acid, and then washed with PBS. After that, 80% methanol was added to each well to obtain a cell lysate. The cell lysate was analyzed using LC-MS/MS to determine the intracellular concentration of 2-acetylnaphtho[2,3-b]furan-4,9-dione.

A549 cells [5] = experiment: Anti-tumor effect in A549 tumor-bearing mice (tumor volume); type: in vivo, mouse; settings: tumor volume (FIG. 15)
Experimental: A549 cells of 5×10^6 per individual were transplanted to a right belly part of a 5 week aged mouse (BALB/cAnNCrlCrlj, male, Charles River Laboratories Japan, Inc.). After one week, the following administration solution (1), (2), (3), (4) or (5) was orally administered in a single time. (1) 100 mg/kg of mefenamic acid (2) 30 mg/kg of 2-acetylnaphtho[2,3-b]furan-4,9-dione (3) 100 mg/kg of 2-acetylnaphtho[2,3-b]furan-4,9-dione (4) 30 mg/kg of 2-acetylnaphtho[2,3-b]furan-4,9-dione and 100 mg/kg of mefenamic acid (5) 100 mg/kg of 2-acetylnaphtho[2,3-b]furan-4,9-dione and 100 mg/kg of mefenamic acid According to a schedule in which an administration solution or an administration solution without an agent was continuously administered for five days and then medication was ceased for two days and continuous administration for five days was carried out again, it was orally administered one time a day. The major axis and the minor axis of a tumor mass were measured by vernier calipers at 2 to 5 day intervals, and the tumor volume was calculated by substituting them into the formula: (minor axis)^2×(major axis)/2.

H460 cells [6] = experiment: Intracellular concentration of 2-acetylnaphtho[2,3-b]furan-4,9-dione with a metabolic inhibitor, H460; type: cell-based, human; settings: 1.0 μmol/L dione with 30 or 100 μmol/L inhibitor, 2 hours (FIG. 11)
Experimental: as §1

[7] = Concentration in plasma by combination with sulindac in cancer-bearing mice; type: in vivo, mouse; settings: oral single dose, 100 mg/kg dione with 25 mg/kg sulindac, two hours after administration (FIG. 14)
Experimental: The following administration solution (1) or (2) was orally administered to 8 week aged mice (BALB/cAnNCrlCrlj, female, Charles River Laboratories Japan, Inc.) in a single time. […] Methanol was added to the plasma such that the final concentration of methanol is 80%, and then it was centrifuged.

H460 cells [8] = experiment: Cytotoxic effect (cell survival rate, Prest Blue), H460; type: cell-based, human; settings: single agent treatment with 1.3 μmol/L, 6 hours (FIG. 12)
Experimental: (§2) A549 cells or H460 cells were seeded onto a 96-well culture plate (Corning) at 2×10^4/well, and then cultured at 37° C. under 5% carbon dioxide atmosphere in an incubator for 48 hours. […] After which, they were cultured in the presence or absence of a test compound (30 μmol/L of flufenamic acid, 100 μmol/L of flufenamic acid, or 100 μmol/L of mefenamic acid as a final concentration) for 6 hours, Prest Blue (Life Technologies) was added, and then incubated for 1 to 2 hours. After the incubation, absorbance at 570 nm was measured to evaluate the cytotoxicity. Absorbance of a well to which a cell had not been added (Ablank) is defined as the background, the cell survival rate was calculated using the following formula to divide a value obtained by multiplying 100 by a value obtained by subtracting the background absorbance from the absorbance of each well (Asample), by a value obtained by subtracting Ablank from the value (Acontrol) of a well in which a cell with no treatment with 2-acetylnaphtho[2,3-b]furan-4,9-dione or a metabolic inhibitor was contained.
(§3) Cell survival rate (%)=(Asample−Ablank)×100/(Acontrol−Ablank)

[9] = Metabolism measurement of 2-acetylnaphtho[2,3-b]furan-4,9-dione in human liver cytosol fractions; type: in vitro ADME; settings: [14C]-labeled compound 0.5 μmol/L, human liver cytosol 0.1 mg/mL, 37° C. (FIG. 7)
Experimental: A reaction solution obtained by dissolving a human liver cytosol (0.1 mg/mL) and NADPH (1 mmol/L) in a phosphate buffer solution was prepared. Into the reaction solution, [^14C]-labeled labeled 2-acetylnaphtho[2,3-b]furan-4,9-dione was added such that the dione concentration is 0.5 μmol/L, and thereby the reaction was started. After incubation at 37° C. for a given time, 0.1% formic acid-containing acetonitrile was added to terminate the reaction, and the mixture was centrifuged. After the supernatant was evaporated to dryness under a stream nitrogen gas, re-dissolving solvent [10 mmol/L ammonium acetate:acetonitrile, 9:1 (v/v)] was used to re-dissolve it, and then Radio-HPLC was used to measure radioactivity.

A549 cells [10] = experiment: Cytotoxic effect (cell survival rate, Prest Blue), A549; type: cell-based, human; settings: single agent treatment with 1.3 μmol/L, 6 hours (FIG. 12)
Experimental: as §2, §3

Compound	inhibition of the metabolism of 2-acetylnaphtho[2,3-b]furan-4,9-dione (residual amount vs control) [1]	further results
CC(=O)O[C@]1(C(C)=O)CC[C@H]2[C@@H]3C[C@H](C)C4=CC(=O)CC[C@]4(C)[C@H]3CC[C@@]21C [medroxyprogesterone 17-acetate]	–	inhibition of the metabolism of 2-acetylnaphtho[2,3-b]furan-4,9-dione [2]: more strongly inhibited than quercitrin
CC(=O)c1ccc(S(=O)(=O)NC(=O)NC2CCCCC2)cc1 [acetohexamide]	inhibited	–
CC(=O)N1CCN(c2ccc(OCC3COC(Cn4ccnc4)(c4ccc(Cl)cc4Cl)O3)cc2)CC1 (centres unmarked) [ketoconazole]	inhibited	–
O=C1OC(c2ccc(O)cc2)(c2ccc(O)cc2)c2ccccc21 [phenolphthalein]	–	inhibition of the metabolism of 2-acetylnaphtho[2,3-b]furan-4,9-dione [2]: more strongly inhibited than quercitrin
C[C@H]1C[C@H]2[C@@H]3CCC4=CC(=O)C=C[C@]4(C)[C@@]3(F)[C@@H](O)C[C@]2(C)[C@@]1(O)C(=O)CCl [clobetasol]	inhibited	–
C#C[C@]1(O)CC[C@H]2[C@@H]3CCc4cc(O)ccc4[C@H]3CC[C@@]21C [ethynyl estradiol]	inhibited	–
Nc1ccc(S(=O)(=O)c2ccc(N)cc2)cc1 [dapsone]	inhibited	–
CC(=O)c1cc2c(o1)C(=O)c1ccccc1C2=O [2-acetylnaphtho[2,3-b]furan-4,9-dione]	–	cell survival rate (H460 cells [8]): ≥ 100%; metabolism in liver cytosol ([9]; NADPH 1 mmol/L): time-dependently metabolized; metabolite mainly produced in liver cytosol ([9]; NADPH): 2-(1-hydroxyethyl)naphtho[2,3-b]furan-4,9-dione (M1); cell survival rate (A549 cells [10]): ≥ 100%
CC(C(O)c1ccc(O)cc1)N1CCC(Cc2ccccc2)CC1 (centres unmarked) [ifenprodil]	inhibited	–
CCC1=C(C)CN(C(=O)NCCc2ccc(S(=O)(=O)NC(=O)N[C@H]3CC[C@H](C)CC3)cc2)C1=O [glimepiride]	inhibited	–
COc1ccc(Cl)cc1C(=O)NCCc1ccc(S(=O)(=O)NC(=O)NC2CCCCC2)cc1 [glibenclamide]	inhibited	–
CC1CC2C3CCC4=CC(=O)C=CC4(C)C3(F)C(=O)CC2(C)C1(O)C(=O)CCl (centres unmarked) [clobetasone]	inhibited	–

Now from value to molecule, other results behind:

inhibition of the metabolism of 2-acetylnaphtho[2,3-b]furan-4,9-dione (residual amount vs control) [1]	Compound	further results
inhibited	CN(C)CCCN1c2ccccc2Sc2ccc(Cl)cc21 [chlorpromazine]	–
inhibited	Cc1cccc(Nc2ccccc2C(=O)O)c1C [mefenamic acid]	concentration of 2-acetylnaphtho[2,3-b]furan-4,9-dione in tumor, combination vs single agent group ([3]; 100 mg/kg dione with 300 mg/kg of mefenamic acid (FIG. 13)): higher; concentration of 2-acetylnaphtho[2,3-b]furan-4,9-dione in plasma, combination vs single agent administration ([3]; 100 mg/kg dione with 100 or 300 mg/kg mefenamic acid, 2, 6, 16 hours (FIG. 13)): higher; intracellular concentration of 2-acetylnaphtho[2,3-b]furan-4,9-dione in the presence of the metabolic inhibitor (A549 cells [4]): increased; anti-tumor activity as a single agent (A549 cells [5]; 100 mg/kg oral once a day, 5 days on/2 off/5 on): no anti-tumor activity; anti-tumor activity of the combination with 2-acetylnaphtho[2,3-b]furan-4,9-dione vs the dione as a single agent (A549 cells [5]; 30 or 100 mg/kg dione and 100 mg/kg mefenamic acid oral once a day): significantly improved; intracellular concentration of 2-acetylnaphtho[2,3-b]furan-4,9-dione in the presence of the metabolic inhibitor (H460 cells [6]): increased
inhibited	Cc1ccc(Cl)c(Nc2ccccc2C(=O)O)c1Cl [meclofenamic acid]	–
inhibited	CCCCc1nc(Cl)c(CO)n1Cc1ccc(-c2ccccc2-c2nn[nH]n2)cc1 [losartan]	–
inhibited	CC1=C(CC(=O)O)c2cc(F)ccc2/C1=C\c1ccc([S+](C)[O-])cc1 (centres unmarked) [sulindac]	concentration of 2-acetylnaphtho[2,3-b]furan-4,9-dione in plasma, combination vs single agent administration [7]: higher
inhibited	CCc1oc2ccccc2c1C(=O)c1cc(Br)c(O)c(Br)c1 [benzbromarone]	–
inhibited	OCc1cc(C(O)CNCCCCCCOCCCCc2ccccc2)ccc1O (centres unmarked) [salmeterol]	–
inhibited	O=C(O)c1ccccc1Nc1cccc(C(F)(F)F)c1 [flufenamic acid]	intracellular concentration of 2-acetylnaphtho[2,3-b]furan-4,9-dione in the presence of the metabolic inhibitor (A549 cells [4]): increased; intracellular concentration of 2-acetylnaphtho[2,3-b]furan-4,9-dione in the presence of the metabolic inhibitor (H460 cells [6]): increased
